Measured values from patent publication US6124281A, “Azolobenzazepine derivatives as neurologically active agents” (Zeneca Limited, priority 1998, dated 2000).
Like-named read-outs stand apart in the source and are kept apart here.

Experiments:
[1] = test system: NMDA-induced excitatory response of red nucleus cells; experiment: Rat Red Nucleus Test; assay type: in vivo; conditions: iv
Description: The purpose of this test is to determine the effects of intravenously administered is glycine antagonists on the NMDA- induced excitatory response of red nucleus cells.
The procedure for the red nucleus test is as follows. Rats are anesthetized with chloral hydrate (400 mg/kg ip) and the femoral vein is catheterized for iv drug administration. Five-barrel micropipettes are stereotaxically positioned in the red nucleus. Typically, three to four of the five barrels are filled as follows: the recording barrel with 2M potassium citrate. the current balancing barrel with 4M NaCl, the drug barrel with 25 mM NMDA, and another drug barrel with 2.5 mM quisqualic acid (QA is only used in selectivity studies). NMDA is iontophoretically applied with an ejection current that is adjusted depending on the sensitivity of each individual red nucleus cell. The NMDA is cycled on and off (usually 30-60 sec. on and 60-120 sec. off) and the firing rate of the cell during each period is recorded. Once the baseline firing rate of the cell has been established, the test drug is administered iv. The inhibitory effect of the drug on the NMDA-induced excitatory response of the red nucleus cell can then be both qualitatively and quantitatively evaluated from the recordings and the raw data accumulated and the results are expressed as an ID50 value (The dose in mg/kg of the test drug which causes 50% inhibition).

[2] = target: T1, N-methyl-D-aspartate receptor (Rattus norvegicus, UniProt P35439); experiment: [3H]-glycine Binding Assay; set-up: species or system Sprague-Dawley rat; conditions: 20 nM [3H]-glycine, rat cortex and hippocampus synaptic membranes, pH 7.1, 30 minutes at 4° C.
T1 construct: Freshly dissected cortices and hippocampi are homogenized in 0.32M sucrose; from tissue; host or cells: cortices and hippocampi of adult male Sprague-Dawley rats, synaptic membranes
Description: [^3 H]-glycine Binding Assay
In the [^3 H]-glycine binding assay, neuronal synaptic membranes are prepared from adult (about 250 g) male Sprague-Dawley rats. Freshly dissected cortices and hippocampi are homogenized in 0.32M sucrose (110 mg/mL). Synaptosomes are isolated by centrifugation (1000×g, 10 minutes), the supernatant is pelleted (20,000×g, 20 minutes) resuspended in double-distilled water. The suspension was centrifuged for 20 minutes at 8,000×g. The resulting supernatant and buffy coat are washed twice (48,000×g, 10 minutes, resuspension in double-deionizedwater). The final pellet is quickly frozen (dry icelethanol bath) under double-deionized water and stored at -70° C.
On the day of the experiment, thawed synaptic membranes are homogenized with a Brinkmann Polytron (TM, Brinkmann Instruments, Westbury, N.Y.) tissue homogenizer in 50 mM tris(hydroxymethyl)aminomethane citrate, pH 7.1. The membranes are incubated with 0.04% Sufact-AMPS X100 (TM, Pierce, Rockford, Ill.) in buffer for 20 minutes at 37° C. and washed six times by centrifugation (48,000×g, 10 minutes) and resuspended in buffer. The final pellet is homogenized at 200 mg wet weight/mL of the buffer for the binding assay.
For [^3 H]-glycine binding at the N-methyl-D-aspartate receptor, 20 nM [^3 H]-glycine (40-60 Ci/mmol, New England Nuclear, Boston, Mass.) is incubated with the membranes suspended in 50 mM tris(hydroxymethyl)aminomethane citrate, pH 7.1 for 30 minutes at 4° C. Glycine, 1mM, is used to define the nonspecific binding. Bound [^3 H]-glycine is isolated from free using a Brandel (Biomedical Research and Development Laboratories, Gaithersburg, Md.) cell harvester for vacuum filtration over glass fiber filters (Whatman GFB from Brandel, Gaithersburg, Md.) presoaked in 0.025% polyethylenimine. The samples retained on the glass fiber filters are rinsed 3 times with a total of 2.5 mL ice cold buffer. Radioactivity is estimated by liquid scintillation counting. IC50 values are obtained from a least-squares regression of a logit-log transformation of the data.

[3] = test system: infarcted cortex; experiment: Rat Middle Cerebral Artery Test; assay type: in vivo, SHR rat; conditions: intravenously, 10 mg/kg per hour over 4 hours; permanent MCA occlusion
Description: Rat Middle Cerebral Artery Test
Male SHR rats weight 280-320 g are used for these studies. The method used for permanent middle cerebral artery (MCA) occlusion is as described by Brint et al (1988). […] Following occlusions, drugs are administered intravenously via jugular catheter. Twenty-four hours after MCA/common carotid artery occlusion, the animals are sacrificed and their brains quickly removed. Coronal sections of 1 mm thickness are cut using a vibratome and stained with 2,3,5-triphenyl-2H-tetrazolium chloride (TTC) dye. Following staining, necrotic tissue is readily distinguished from the intact brain and the area of infarcted cortex can be traced on an image analyzer. The infarct volume for each section is quantified with an image analyzer, and the total infarct volume is calculated with a program that sums all interval volumes. See S. Brint et al. J. Cerebral Blood Flow 8:474-475 (1988). The statistical analysis of the difference between the volume of ischemic damage in the vehicle control and drug-treated animals is analyzed by Student's t-test. The results are expressed as the percent (%) change in infarct volume and are presented as the mean for animals.

[4] = test system: neuronal damage in the hippocampus; experiment: Gerbil Ischemic Model; assay type: in vivo, Mongolian gerbil; conditions: ip twice (pre- and post-occlusion), 20 mg/kg body weight
Description: Adult female Mongolian gerbils (50-70 g) are anesthetized with 2 to 3% halothane. The bilateral common carotid arteries at the neck are exposed and occluded with microaneurysm clips. After 10 min (unless specified), the clips are removed and the blood flow through the carotid arteries is restored and the skin is sutured. Test compounds are administered intraperitoneally both pre- and post-occlusion, for example 45 minutes before and 5 minutes after occlusion of the carotid arteries. Sham-operated animals are treated in the same manner except that the arteries are not clamped, gross behavioral observations along with motor activity are recorded for 2 hours on the first (24 hours) day following the occlusion. After 4 days, subjects are sacrificed (decapitation), brains are removed, fixed, sectioned and stained with hematoxylin/eosin and cresyl violet.
The brain sections are rated for neuronal damage in the hippocampus using the following rating scale:
1=slight damage (up to 25%)--restricted to CA1 subiculum border
2=moderate damage (up to 50%)--obvious damage, restricted to less than half of CA1 field […]
Sections (7 micron) are evaluated from each brain. […] The average brain damage rating score for each group is recorded, and the damage scores of the drug treated group are compared to the vehicle-treated group using Wilcoxcon-Rank Sum test. […]

[5] = NMDA-induced excitatory response, compounds of the invention, read-out: ID50 (dose of the test drug which causes 50% inhibition)

| Structure (SMILES) | IC50 [2] | ED50 [1, 5] | other results |
| --- | --- | --- | --- |
| C/C(=C\C(N)C(=O)O)CP(=O)(O)O (stereo not shown) [CGP 37849, reference compound] | – | – | ED50 ([1]; read-out: ID50 of reference agents shown to be active in this test): 1.7 mg/kg |
| CC(C)OC(=O)c1n[nH]c2c(=O)[nH]c3cc(Cl)ccc3c(=O)c12 [Example 18, 7-Chloro-3-(isopropoxycarbonyl)pyrazolo[3,4-c][1]benzazepine-4,10(1H,9H)-dione] | 0.064 µM | 3.5 mg/kg | change in infarct volume [3]: -19% |
| CCCCOC(=O)c1n[nH]c2c(=O)[nH]c3cc(Cl)ccc3c(=O)c12 [Example 27, 3-butoxycarbonyl-7-chloropyrazolo[3,4c][1]benzazepine-4,10(1H,9H)-dione] | 0.229 µM | 5.7 mg/kg | – |
| CCCOC(=O)c1n[nH]c2c(=O)[nH]c3cc(Cl)ccc3c(=O)c12 [Example 28, 3-propoxycarbonyl-7-chloropyrazolo[3,4-c][1]benzazepine-4,10(1H,9H)-dione] | 0.027 µM | 4.6 mg/kg | – |
| O=c1[nH]c2cc(Cl)ccc2c(=O)c2n[nH]nc12 [Example 48(d), 7-Chloro-1,2,3-triazolo[4,5-c][1]benzazepine-4,10(1H,9H)-dione] | – | – | neuroprotection [4]: 77% |
| NC1CCN(O)C1=O (stereo not shown) [HA-966, reference compound] | – | – | ED50 ([1]; reference agents, read-out: ID50 of reference agents shown to be active in this test): 7.9 mg/kg |
